Measured values reported in patent US20020028847A1, “Method for treatment of fibrosis related diseases by the administration of prostacyclin derivatives” (Fibrogen, Inc., priority 1998, published 2002).
Where two headings read alike, the source gives them in different places.

Assays:
[1] = test system: renal interlobar and cortical arteries; details: scleroderma patients, iloprost infusions; cited from earlier work
[2] = test system: platelet thrombus formation; details: animals with thrombin induced thrombosis; cited from earlier work
Raynaud's phenomena = details: patients; cited from earlier work
CTGF promoter = experiment: CTGF promoter/luciferase transfection assay in normal human fibroblasts; assay type: cell-based; details: measured over a twenty-four hour period
Protocol: Normal human fibroblasts were grown to 80% confluence in a 6 well plate. 1 μg of DNA (CTGF promoter/luciferase) was added with 3 μl of FuGene 6 transfection reagent (Boehringer Mannheim 1814443); wherein the FuGene 6 was added dropwise to serum free culture medium and left at room temperature for five minutes and added to 1 µg of DNA in a separate tube for fifteen minutes. The DNA/FuGene 6 solution was then added dropwise to the cell culture by spreading around each well and swirling the flasks. The cell culture was returned to an incubator and the cells were grown again to confluence, approximately 36 hours. The cells were then switched to a serum free medium with ascorbate and left overnight. The cells were then treated for 24 hours as follows: control; Iloprost 1000 pg/ml; TGF-β 20 ng/ml; and TGF-β 20 ng/ml+Iloprost 1000 pg/ml.
After 24 hours the cells were lysed with Promega reporter lysis buffer (E 397A) at room temperature, 400 μl per […] and left for 15 minutes at room temperature. A 50 μl sample of the lysate was drawn and 100 μl of luciferase assay reagent (Promega E 148A) was added. Chemiluminensence was read using a plate reader program ARQ.1PT software micro P1.00.

CTGF RNA = experiment: Northern blot for CTGF RNA; assay type: cell-based; details: cells treated with TGF-β and iloprost
Protocol: Cultured cells are grown to confluence on 100 mm plates. The cells were then serum starved with ascorbate for 24 hours, after which conditioned medium with TGF-β and Iloprost was added. The cells were then lysed with TRIzol (Gibco catalog no. 15596-018) wherein 1 ml per plate of the TRIzol was added and the plate was left at room temperature for ten minutes. 200 μl of chloroform was then added and the cells were vortexed for 20 seconds. The cells were then left alone for 5 minutes at room temperature and then centrifuged in a microcentrifuge tube for 10 minutes at maximum speed at 4° C. The upper layer was then removed (layer containing RNA) and then mixed with an equal volume of isopropanol. The mixture was then centrifuged for 10 minutes to form a pellet of RNA. 0.5 ml of 70% ethanol in RNAse free purified water was then added to the pellet. The ethanol was then tipped off and the pellet was left to dry. After five minutes, the pellet was resuspended in 20 μl of RNAse free water and kept on ice. To assay the RNA using a photospectometer, a sample of the RNA was diluted 1/500 (volume 1 ml) and read at OD 260 nm (to measure RNA) and 280 nm (to measure protein). RNA concentration was calculated in terms of μg/μl=(OD260×40×dilution)/1000. […]

CTGF = CTGF ELISA on cultured skin fibroblasts; assay type: cell-based, human; details: scleroderma fibroblasts
From the text: 4 mm punch skin biopsies were taken from the forearms of healthy volunteers and from patients with active diffuse scleroderma. Fibroblasts from these biopsies were subcultured to passage 6 in Dulbecco's modified eagle medium with 10% fetal calf serum and Pen Strep solution and grown to confluence. Twenty-four hours before assay, the fibroblasts were switched to serum free media with exchange of media every eight (8) hours. Upon switching to serum free medium (L-ascorbic acid phosphate magnesium salt n-hydrate) (C6H6O9P) 3/2 Mg was added at a final concentration of 30 μg/ml. The following protocol was used for the CTGF ELISA: 1. Plate antigen on Nunc immuno plase Maxisorp surface (catalog number 442402). 2. CTGF standard curve by two fold serial dilution in 6 triplicates (see Table 1, below). 3. Add 50 μl of sample to each well. 4. Leave wells for 2 hours at room temperature. 5. Wash wells 4 times with PBSa. 6. Add first layer antibody (pAB2 rabbit anti-human CTGF (0.8 mg/ml)( 1/1280)) diluted to 625 ng/ml in blocking buffer (1% BSA/0.05% tween20/PBS). 7. Add 50 μl to each well and leave at room temperature for one hour. 8. Wash wells five times with PBS. 9. Add second layer antibody donkey anti-rabbit IgG, HRP linked whole antibody (Amersham Life Sciences, Catalog No. NA 934 diluted 1/3200 in block buffer). 10. […] Stop reaction with 50 μl per well of 1M H2SO4 and read OD at 450 nm.

scleroderma fibroblasts = experiment: ELISA for collagen (N propeptide of Type I collagen α chain) in cultured skin fibroblasts; assay type: cell-based, human
From the text: 4 mm punch skin biopsies were taken from the forearms of healthy volunteers and from patients with active diffuse scleroderma. Fibroblasts from these biopsies were subcultured to passage 6 in Dulbecco's modified eagle medium with 10% fetal calf serum and Pen Strep solution and grown to confluence. Twenty-four hours before assay, the fibroblasts were switched to serum free media with exchange of media every eight (8) hours. Upon switching to serum free medium (L-ascorbic acid phosphate magnesium salt n-hydrate) (C6H6O9P) 3/2 Mg was added at a final concentration of 30 μg/ml. The supernatant fluid from the above described culture was diluted 1/100 in 0.1 M NaHCO3 and 100 μl of said diluted culture was added to each well of a 96 well maxisorp plate. The plate was then left at room temperature for two hours on a plate shaker. The plate was then washed once in PBS. 200 μl of 2% BSA in PBS was then added and the plate was left for two hours to block non-specific binding. The plate was then washed four times in PBS and first layer antibody, anti-N-procollagen I rabbit polyclonal, diluted 1/2000 in 1% BSA PBS, was added at 100 μl/well. The plate was left for two (2) hours at room temperature and then washed four times in PBS. A second layer antibody, HRP labeled goat anti-rabbit IgG 1/2000, was then added and left for two hours. […] The plate was then read on a multiwell analyser.

metastasis = details: several different animal models; cited from earlier work

| SMILES | resistive index of the renal interlobar and cortical arteries [1] | platelet thrombus formation [2] | safety and efficacy in Raynaud's phenomena (Raynaud's phenomena) | time of most pronounced inhibitory effect on CTGF production (CTGF promoter) | TGF-β induced synthesis of CTGF RNA (CTGF RNA) | TGF-β induced synthesis of CTGF RNA (CTGF RNA; listed as iloprost) | CTGF production (CTGF) | CTGF production (CTGF; listed as iloprost) | excessive production of collagen (scleroderma fibroblasts) | excessive production of collagen (scleroderma fibroblasts; listed as iloprost) | inhibition of metastasis (metastasis) |
| --- | --- | --- | --- | --- | --- | --- | --- | --- | --- | --- | --- |
| CC#CCC(C)[C@H](O)/C=C/[C@@H]1[C@H]2C/C(=C/CCCC(=O)O)C[C@H]2C[C@H]1O (stereo partly drawn) [Iloprost, 5-(E)-(1S,5S,6R)-7-hydroxy-6[(E)-(3S,4RS)-3-hydroxy-4-methyl-1-octen-6-inyl]bicyclo[3.3.0]octen-3-ylidene pentanoic acid] | reduction of the resistive index | prevent platelet thrombus formation | safe and effective therapy | most pronounced between hour 1 and hour 3 | inhibit CTGF production | blocked | decrease in CTGF production | capable of inhibiting collagen production and CTGF production | inhibited | capable of inhibiting collagen production | – |
| CCC#CC[C@H](C)[C@H](O)C#C[C@@H]1[C@H]2C/C(=C/COCC(=O)O)C[C@H]2C[C@H]1O [cicaprost] | – | – | – | – | – | – | – | – | – | – | effectively inhibit metastasis |
| CCC#CC[C@H](C)[C@H](O)C#C[C@@H]1[C@H]2C/C(=C/COCCCC(=O)O)C[C@H]2C[C@H]1O [eptaloprost] | – | – | – | – | – | – | – | – | – | – | antimetastically acting agents |
